Results published in patent publication US9868935B2, “Composition and method of stem cells for preservation of cardiac tissue” (CRIOESTAMINAL, SAÚDE E TECNOLOGIA, SA., priority 2012, dated 2018).

Experiments:
[1] = system: CD34+ cells; experiment: Antagonist pretreatment and LPA-induced CD34+ cell survival in hypoxia (Annexin V/PI FACS); type: cell-based, human; conditions: hypoxia 24 h; for effect of antagonist on pro-survival effect of LPA: antagonist 1 h pretreatment + LPA 100 μM
Protocol: FIG. 5—LPA induces CD34+ cell survival mainly through peroxisome proliferator-activator receptor (PPAR). Cells were cultured in serum free medium with LPA. Cells were pretreated with Rho kinase inhibitor (Y-2762, 50 μM), mitogen-activated protein kinase (MAPK) inhibitor (PD98059, 60 μM), LPA1- and LPA3-specific inhibitor (Ki16425, 10 μM), or peroxisome proliferator-activator receptor g (PPARg) inhibitor (GW9662, 50 μM) for 1 hour before hypoxia and cell medium containing LPA (100 μM) for 24 h. Cells without any pretreatment and cultured in serum free medium with or without LPA, in hypoxia for 24 h, were used as positive and negative controls, respectively. Results are average±SEM (n=3-6). * Denote statistical significance: *P<0.05, **P<0.01, […].
The biological roles of LPA are diverse and include developmental, physiological, and pathophysiological effects (Lin, M. E., D. R. Herr, and J. Chun, Lysophosphatidic acid (LPA) receptors: signaling properties and disease relevance. Prostaglandins Other Lipid Mediat, 2010. 91(3-4): p. 130-8). To date up to five LPA receptors (LPARs) have been identified: LPA1-LPA5 (Choi, J. W., et al., LPA receptors: subtypes and biological actions. Annu Rev Pharmacol Toxicol, 2010. 50: p. 157-86). The receptors are G protein-coupled receptors (GPCRs) and their presence can be found in multiple tissues. LPA1, LPA2 and LPA3 are widely expressed in most tissues (Ishii, I., et al., Functional comparisons of the lysophosphatidic acid receptors, LP(A1)/VZG-1/EDG-2, LP(A2)/EDG-4, and LP(A3)/EDG-7 in neuronal cell lines using a retrovirus expression system. Mol Pharmacol, 2000. 58(5): p. 895-902). LP4 is expressed in specific organs, such as the pancreas, ovaries and thymus (Lee, C. W., et al., LPA(4)/GPR23 is a lysophosphatidic acid (LPA) receptor utilizing G(s)-, G(q)/G(i)-mediated calcium signaling and G(12/13)-mediated Rho activation. J Biol Chem, 2007. 282(7): p. 4310-7). LPA5 is expressed at low levels in multiple tissues (Lee, C. W., et al., GPR92 as a new G12/13- and Gq-coupled lysophosphatidic acid receptor that increases cAMP, LPA5. J Biol Chem, 2006. 281(33): p. 23589-97). To identify the receptor that is mediating the pro-survival effect of LPA (100 μM), was used Ki16425 (10 μM), an LPA1- and LPA3-specific antagonist, and GW9662 (50 μM), an antagonist of peroxisome proliferator-activator receptor γ (PPAR γ). Studies indicate that LPA has a high affinity by this last receptor (McIntyre, T. M., et al., Identification of an intracellular receptor for lysophosphatidic acid (LPA): LPA is a transcellular PPARgamma agonist. Proc Natl Acad Sci USA, 2003. 100(1): p. 131-6; Gustin, C., M. Van Steenbrugge, and M. Raes, LPA modulates monocyte migration directly and via LPA-stimulated endothelial cells. Am J Physiol Cell Physiol, 2008. 295(4): p. C905-14). This approach was complemented, by inhibiting downstream targets of the receptors including Rho kinase and mitogen-activated protein kinase (MAPK) using Y-2762 (50 μM) and PD98059 (60 μM) antagonists, respectively. It is known that all LPARs couple with and activate G proteins, which in turn activate MAPK (LPA1, LPA2, LPA3 and LPA4) and Rho kinase (LPA1, LPA2, LPA4 and LPA5) (Choi, J. W., et al., LPA receptors: subtypes and biological actions. Annu Rev Pharmacol Toxicol, 2010. 50: p. 157-86). Cells were treated for 1 h in X-Vivo medium containing a specific antagonist followed by culture under hypoxia conditions for 24 h. Cell survival was assessed by FACS analysis after Annexin V/PI staining. […] The number of viable cells decreased from 77% (+LPA) to 67% (P<0.01, n=19). […] Because the two signaling pathways are downstream targets of different LPARs (see above), this might indicate different contributions of LPARs in the survival of CD34+ cells.

[2] = system: human umbilical cord blood derived CD34+ cells; experiment: CD34+ cell survival in hypoxia and serum deprived conditions (Annexin V/PI flow cytometry); type: cell-based; conditions: hypoxia 0.5% O2, 24 h, serum free; P<0.001
Protocol: In an embodiment, UCB CD34+ cells (1×10^^6 cells/mL) were incubated in X-Vivo media (Lonza) in a hypoxia chamber for 24 h (0.5% of O2 and 5% of CO2), in the presence or absence of pharmacological drugs, for further assessment of cell survival/apoptosis and necrosis by FACS analysis of the expression of annexin V and PI respectively. Preferably, cells were pretreated with the respective drugs for 1 hour before hypoxia, and treatment maintained during hypoxia.
In a preferred embodiment, to identify molecules that promote CD34+ cell survival in hypoxia and serum deprived conditions we developed an assay that uses human umbilical cord blood derived CD34+ cells (2×10^^5 cells per well of a 96-well plate) suspended in X-Vivo medium (used in clinical trials (Schachinger, V., et al., Intracoronary bone marrow-derived progenitor cells in acute myocardial infarction. N Engl J Med, 2006. 355(12): p. 1210-21)) and incubated in a hypoxia chamber at 0.5% O2, at 37° C., for 24 h. Some of the drugs selected have been approved by FDA for the treatment of cardiovascular diseases (e.g. Nebivolol Lombardo, R. M., et al., Effects of nebivolol versus carvedilol on left ventricular function in patients with chronic heart failure and reduced left ventricular systolic function. Am J Cardiovasc Drugs, 2006. 6(4): p. 259-63; Ibersatan Massie, B. M., et al., Irbesartan in patients with heart failure and preserved ejection fraction. N Engl J Med, 2008. 359(23): p. 2456-67), others are being evaluated in pre-clinical/clinical assays to improve heart function in patients/models with heart failure (e.g. INO1001 (Szabo, G., et al., INO-1001 a novel poly(ADP-ribose) polymerase (PARP) inhibitor improves cardiac and pulmonary function after crystalloid cardioplegia and extracorporal circulation. Shock, 2004. 21(5): p. 426-32); erythropoietin (Belonje, A. M., et al., Effects of erythropoietin after an acute myocardial infarction: rationale and study design of a prospective, randomized, clinical trial (HEBE III). Am Heart J, 2008. 155(5): p. 817-22); melatonin (Chen, Z., et al., Protective effect of melatonin on myocardial infarction. Am J Physiol Heart Circ Physiol, 2003. 284(5): p. H1618-24); VX-702 (Ma, X. L., et al., Inhibition of p38 mitogen-activated protein kinase decreases cardiomyocyte apoptosis and improves cardiac function after myocardial ischemia and reperfusion. Circulation, 1999. 99(13): p. 1685-91)), others are natural substances found in the human body (LPA). Cell viability was evaluated by flow cytometry using Annexin V/propidium iodide (PI) staining. Annexin V is a phospholipid-binding protein with specificity for phospatidyl serine, one of the earliest makers of cellular transition to an apoptotic state. This phospholipid is translocated from the inner to the outer leaflet of the plasma membrane (Koopman, G., et al., Annexin V for flow cytometric detection of phosphatidylserine expression on B cells undergoing apoptosis. Blood, 1994. 84(5): p. 1415-20.). PI enters in necrotic cells and binds to double-stranded nucleic acids, but is excluded from cells with normal integrity. According to FIG. 1, untreated CD34+ cells show a very poor survival, with only ˜31% of viable cells, ˜31% of apoptotic cells (Annexin V+/PI−) being the majority of the cells ˜39% at the necrotic stage (PI+). […] LPA (10 μM) was the drug with the highest pro-survival effect (˜69% of viable cells) and therefore further studied (FIGS. 1 and 2A).
Importantly, the percentage of viable cells in CD34+ treated with 1 μM of LPA and cultured under hypoxia conditions is similar to untreated cells cultured under normoxia conditions. The pro-survival effect of LPA decreases as a function of hypoxia time (FIG. 2C). The percentage of viable cells in LPA-treated CD34+ cells decreased from 78% at day 1 to 40% at day 3.

| SMILES | number of viable cells induced by LPA after antagonist ([1]; GW9662 50 μM 1 h pretreatment + LPA 100 μM, P<0.001, n=11) [%] | effect of antagonist on pro-survival effect of LPA [1] | number of viable cells induced by LPA after antagonist ([1]; Ki16425 10 μM 1 h pretreatment + LPA 100 μM, P<0.01, n=19) [%] | cell survival vs untreated cells [2] |
| --- | --- | --- | --- | --- |
| O=C(Nc1ccccc1)c1cc([N+](=O)[O-])ccc1Cl [GW9662] | ~53 | did not block totally the pro-survival effect of LPA | – | – |
| Cc1noc(-c2ccc(CSCCC(=O)O)cc2)c1NC(=O)OC(C)c1ccccc1Cl (stereo not drawn) [Ki16425] | – | relatively small effect | 67 | – |
| COc1cccc(-c2cc(=O)c3ccccc3o2)c1N [PD98059] | – | suppressed at higher levels the pro-survival effect of LPA than the inhibition of Rho kinase signaling pathway | – | – |
| CCCCC[C@H](O)/C=C/[C@H]1[C@H](O)CC(=O)[C@@H]1C/C=C\CCCC(=O)O [prostaglandin E2, reference compound] | – | – | – | improved significantly |
